From the NIST ThermoML archive (doi:10.1016/j.jct.2015.10.016) come the findings set out here.

The conditions of data set [1]: Crystal; DTA.
Data set [2] can be described thus: Molar enthalpy of transition or fusion. The following applies: Crystal; DSC.

Numbers after ± are expanded uncertainties.

Take `O=C(NC[C@H]1CN(c2ccc(N3CCOCC3=O)cc2)C(=O)O1)c1ccc(Cl)s1` [Rivaroxaban]: the Normal melting temperature in data set [1] amounted to 235.40 ± 1.1 °C. Further, the “Molar enthalpy of transition or fusion” value in data set [2] came out at 11.2 ± 0.502 kcal/mol.
